Measurements taken from patent US20250388589A1, “TRICYCLIC HETEROCYCLIC DERIVATIVES, COMPOSITIONS AND USES THEREOF” (Danatlas Pharmaceuticals Co., Ltd., priority 2022, published 2025).

Columns and labels:
[1] = test system: Kuramochi cell line; test: Cell Viability Assay (Cell Titer-Glo, 7 days); type: cell-based; details: 168 h, Kuramochi cells, 7 days incubation, read-out: PARG Cell viability (IC50)
Outline: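 IC50 from a four-parameter fit of CellTiter-Glo luminescence, scaled between DMSO-treated (high) and medium-only (low) wells. Kuramochi cells (400/well, RPMI/10% FBS) exposed 7 days at 37 °C to 9 concentrations, 3-fold steps, in duplicate.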

[2] = target: hPARG (C-terminal His6-tag) (Homo sapiens (Human), UniProt Q86W56); test: PARG Enzymatic Activity Assay (HTRF); type: biochemical; details: hPARG 65 pM final, biotinylated-NAD ribosylated PARP1 8 nM final
Outline: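 Readout is time-resolved fluorescence at 620 and 665 nm after 60 min RT detection with streptavidin-Eu cryptate and anti-6HIS-XL665; IC50 by 4-parameter fit, 1% DMSO and no-enzyme controls. Reaction: 8 nM final ribosylated PARP1 substrate for 10 min RT, following 60 min RT enzyme (65 pM)–compound preincubation in Tris pH 7.4 buffer with EDTA, DTT, KCl.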

Sequence of hPARG (C-terminal His6-tag) (Q86W56 whole entry): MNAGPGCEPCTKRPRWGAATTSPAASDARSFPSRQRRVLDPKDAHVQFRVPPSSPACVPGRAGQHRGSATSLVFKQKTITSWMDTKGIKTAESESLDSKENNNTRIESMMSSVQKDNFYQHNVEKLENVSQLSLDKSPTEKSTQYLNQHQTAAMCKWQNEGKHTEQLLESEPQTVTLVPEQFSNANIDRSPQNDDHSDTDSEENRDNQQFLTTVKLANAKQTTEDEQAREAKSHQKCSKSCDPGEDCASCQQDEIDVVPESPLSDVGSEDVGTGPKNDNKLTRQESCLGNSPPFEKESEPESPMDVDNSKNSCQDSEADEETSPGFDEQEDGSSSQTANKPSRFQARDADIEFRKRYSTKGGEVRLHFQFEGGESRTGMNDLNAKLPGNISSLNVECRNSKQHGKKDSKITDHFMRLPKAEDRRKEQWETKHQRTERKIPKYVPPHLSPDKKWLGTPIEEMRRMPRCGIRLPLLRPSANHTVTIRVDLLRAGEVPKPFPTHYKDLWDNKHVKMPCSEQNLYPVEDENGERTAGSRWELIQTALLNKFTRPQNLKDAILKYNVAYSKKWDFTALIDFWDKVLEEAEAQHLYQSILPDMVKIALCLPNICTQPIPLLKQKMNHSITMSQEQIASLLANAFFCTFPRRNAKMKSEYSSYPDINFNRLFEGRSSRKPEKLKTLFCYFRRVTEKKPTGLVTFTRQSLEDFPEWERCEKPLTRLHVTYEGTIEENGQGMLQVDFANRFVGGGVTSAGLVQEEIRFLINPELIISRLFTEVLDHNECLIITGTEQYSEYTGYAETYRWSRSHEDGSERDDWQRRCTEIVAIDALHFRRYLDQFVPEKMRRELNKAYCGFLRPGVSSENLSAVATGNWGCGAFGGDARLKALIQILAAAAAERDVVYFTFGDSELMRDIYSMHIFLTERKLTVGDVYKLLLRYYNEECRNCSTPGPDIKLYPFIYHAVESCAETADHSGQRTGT

Row | SMILES | IC50 [2] | IC50 [1]
1 | CC(C)C(=O)N1C2CCC1CN(c1ncnc3c1c1ccc(S(=O)(=O)NC4(C#N)CC4)cc1n3-c1nnc(C(F)F)s1)C2 [Example 24, N-(1-Cyanocyclopropyl)-9-[5-(difluoromethyl)-1,3,4-thiadiazol-2-yl]-4-[8-(2-methylpropanoyl)-3,8-diazabicyclo[3.2.1]octan-3-yl]pyrimido[4,5-b]indole-7-sulfonamide] | < 100 nM | 100 to 1000 nM
2 | N#CC1(NS(=O)(=O)c2ccc3c4c(C5CCN(C(=O)[C@@H]6CCCO6)CC5)ncnc4n(-c4nnc(C(F)F)s4)c3c2)CC1 [Example 111, (S)-N-(1-cyanocyclopropyl)-9-(5-(difluoromethyl)-1,3,4-thiadiazol-2-yl)-4-(1-(tetrahydrofuran-2-carbonyl)piperidin-4-yl)-9H-pyrimido[4,5-b]indole-7-sulfonamide] | < 100 nM | < 100 nM
3 | N#CC1(NS(=O)(=O)c2ccc3c4c(C5CCN(C(=O)[C@H]6CCOC6)CC5)ncnc4n(-c4nnc(C(F)F)s4)c3c2)CC1 [Example 115, (S)-N-(1-cyanocyclopropyl)-9-(5-(difluoromethyl)-1,3,4-thiadiazol-2-yl)-4-(1-(tetrahydrofuran-3-carbonyl)piperidin-4-yl)-9H-pyrimido[4,5-b]indole-7-sulfonamide] | < 100 nM | < 100 nM
4 | CN(C)C(=O)c1ccc(-c2ncnc3c2c2ccc(S(=O)(=O)NC4(C#N)CC4)cc2n3-c2nnc(C(F)F)s2)cc1 [Example 43, 4-(7-(N-(1-Cyanocyclopropyl)sulfamoyl)-9-(5-(difluoromethyl)-1,3,4-thiadiazol-2-yl)-9H-pyrimido[4,5-b]indol-4-yl)-N,N-dimethylbenzamide] | < 100 nM | 100 to 1000 nM
5 | N#CC1(NS(=O)(=O)c2cc3c(cc2F)c2c(N4CCC(O)CC4)ncnc2n3-c2nnc(C(F)F)s2)CC1 [Example 55, N-(1-Cyanocyclopropyl)-9-(5-(difluoromethyl)-1,3,4-thiadiazol-2-yl)-6-fluoro-4-(4-hydroxypiperidin-1-yl)-9H-pyrimido[4,5-b]indole-7-sulfonamide] | < 100 nM | < 100 nM
6 | N#CC1(NS(=O)(=O)c2ccc3c4c(N5CCN(C(=O)C6(F)CCC6)CC5)ncnc4n(-c4nnc(C(F)F)s4)c3c2)CC1 [Example 68, N-(1-Cyanocyclopropyl)-9-(5-(difluoromethyl)-1,3,4-thiadiazol-2-yl)-4-(4-(1-fluorocyclobutane-1-carbonyl)piperazin-1-yl)-9H-pyrimido[4,5-b]indole-7-sulfonamide] | < 100 nM | 100 to 1000 nM
7 | N#CC1(NS(=O)(=O)c2ccc3c4c(N5CCN(C(=O)c6ccc(F)cc6)CC5)ncnc4n(-c4nnc(C(F)F)s4)c3c2)CC1 [Example 13, N-(1-Cyanocyclopropyl)-9-(5-(difluoromethyl)-1,3,4-thiadiazol-2-yl)-4-(4-(4-fluorobenzoyl)piperazin-1-yl)-9H-pyrimido[4,5-b]indole-7-sulfonamide] | 100 to 1000 nM | 100 to 1000 nM

Continued, in another order:

Row | IC50 [2] | SMILES | IC50 [1]
8 | < 100 nM | N#CC1(NS(=O)(=O)c2ccc3c4c(C5CCN(C(=O)N6CCCO6)CC5)ncnc4n(-c4nnc(C(F)F)s4)c3c2)CC1 [Example 139] | < 100 nM
9 | < 100 nM | N#CC1(NS(=O)(=O)c2ccc3c4c(N5CCC(O)(C(F)(F)F)CC5)ncnc4n(-c4nnc(C(F)F)s4)c3c2)CC1 [Example 191, N-(1-Cyanocyclopropyl)-9-(5-(difluoromethyl)-1,3,4-thiadiazol-2-yl)-4-(4-hydroxy-4-(trifluoromethyl)piperidin-1-yl)-9H-pyrimido [4,5-b]indole-7-sulfonamide] | < 100 nM
10 | < 100 nM | C[C@H](N)C(=O)N1CCC(c2ncnc3c2c2ccc(S(=O)(=O)NC4(C#N)CC4)cc2n3-c2nnc(C(F)F)s2)CC1 [Example 128, 4-(1-(L-alanyl)piperidin-4-yl)-N-(1-cyanocyclopropyl)-9-(5-(difluoromethyl)-1,3,4-thiadiazol-2-yl)-9H-pyrimido[4,5-b]indole-7-sulfonamide] | 100 to 1000 nM
11 | < 100 nM | CC(O)CN(C)C(=O)N1CCC(c2ncnc3c2c2ccc(S(=O)(=O)NC4(C#N)CC4)cc2n3-c2nnc(C(F)F)s2)CC1 (stereo not shown) [Example 142, 4-(7-(N-(1-cyanocyclo-propyl)sulfamoyl)-9-(5-(difluoromethyl)-1,3,4-thiadiazol-2-yl)-9H-pyrimido[4,5-b]indol-4-yl)-N-(2-hydroxypropyl)-N-methylpiperidine-1-carboxamide] | < 100 nM
